“And” between values parts separate entries of the source, which are not always exact repeats. Equal values may be shown once. “Also recorded” adds a separate entry of the source.
Columns and labels:
[1] = system: Pt48 R short-term culture; test: Cell survival / proliferation assay (72 h); format: cell-based, human
Description: (§1) Cells were maintained in Dulbecco's modified Eagle medium (DMEM) with 10 or 20% fetal bovine serum and glutamine. shRNAs were sub-cloned into the lentiviral vector pLL3.7 and infections carried out with protamine sulphate. Stocks of PLX4032 (Plexxikon) and AZD6244 (commercially available) were made in DMSO. Cells were quantified using CellTiter-GLO Luminescence (Promega).
(§2) Cell proliferation experiments were performed in a 96-well format (five replicates), and baseline quantification performed at 24 h after cell seeding along with initiation of drug treatments (72 h). Stocks and dilutions of PLX4032 (Plexxikon), AZD6244 (Selleck Chemicals) and U0126 (Promega) were made in DMSO. siRNA pool (Dharmacon) transfections were carried out in 384-well format. TransIT transfection reagent (Mirus) was added to each well and incubated at 37° C. for 20 min. Subsequently, cells were reverse transfected, and the mixture was incubated for 51-61 h at 37° C. Cells were quantified using CellTiter 96 Aqueous One Solution (Promega) or CellTiter-GLO Luminescence (Promega) following the manufacturer's recommendations.

[2] = system: Pt55 R short-term culture; test: Cell survival / proliferation assay (72 h); format: cell-based, human
Description: as §1, §2

B-RAF(V600E) kinase = B-RAF(V600E) kinase (Homo sapiens, UniProt P15056, V600E); test: In vitro kinase assay of immunoprecipitated B-RAF; format: biochemical; settings: from resistant sub-lines and short-term cultures compared with parental cell lines; 1 μM PLX4032, 30 min at 30° C.
Source text: Cells were harvested and protein lysates prepared in a NP40-based buffer before subjected to immunoprecipitation (IP). […] The beads were subsequently pelleted and the supernatant resuspended in sample buffer for western blotting to detect p-MEK and total MEK.

melanoma = test: PLX4032 clinical trial patients: best overall response and progression free survival (Table 2); format: in vivo, human; settings: individual PLX4032 clinical trial patient
p61 BRAF(V600E) = p61 BRAF(V600E) (Homo sapiens, UniProt P15056, DEL169-380/V600E); test: ERK signaling in cells ectopically expressing p61 BRAF(V600E); format: cell-based
Source text: FIGS. 6A-6E. […] FIG. 6A. PCR analysis of BRAF in cDNA from parental (P) and C3 cells. Primers were designed at the N-terminus and C-terminus of BRAF. […] Abbreviations: CR1: Conserved Region 1, CR2: Conserved Region 2, CR3: Conserved Region 3, RBD: RAS-binding domain, CRD: Cystine-Rich Domain, AS: Activation Segment, KD: Kinase Domain. FIG. 6B. Full length wild-type BRAF and the 1.7 kb/61 kd splice variant of BRAF(V600E) were cloned into a pcDNA3.1 vector with a FLAG tag at the C-terminus and expressed in 293H cells. The effect of PLX4032 (2 μM for 1 hour) on ERK signaling in the presence of p61 BRAF(V600E) was analyzed by western blot for pMEK and pERK. FIG. 6C. To compare levels of dimerization, 293H cells co-expressing FLAG tagged and V5-tagged p61 BRAF(V600E), full length BRAF(V600E) and the corresponding dimerization-deficient mutants p61 BRAF(V600E/R509H) and BRAF(V600E/R509H) were lysed followed by immunoprecipitation with FLAG antibody. Western blots with V5 or FLAG antibodies were performed as indicated. FIG. 6D. Comparison of MEK/ERK activation and sensitivity of ERK signaling to PLX4032 (2 μM for 1 hour) in 293H cells expressing either Flag-tagged BRAF(V600E) or the dimerization mutant Flag-tagged BRAF(V600E/R509H). FIG. 6E. Constructs expressing V5-tagged BRAF(V600E), p61 BRAF(V600E) or the dimerization mutant p61 BRAF(V600E/R509H) were transfected into 293H cells and treated with DMSO or 2 μM PLX4032 for 1 hour.
Plasmids/Trasfections. Flag-tagged BRAF constructs have been described previously^4. All other plasmids were created using standard cloning methods, with pcDNA3.1 (Invitrogen) as a vector. Mutations were introduced using the site-directed Mutagenesis Kit (Stratagene). For transfection studies, cells were seeded at 35 mm or 100 mm plates and transfected the following day using Lipofectamine 2000 (Invitrogen). Cells were collected 24 hours later for subsequent analysis.

melanoma tumors = test: Melanoma patients treated with vemurafenib (PLX4032): best response and PFS (Table 5); format: in vivo, human; settings: individual patient; patients 1-19 acquired resistance, 20-21 primary resistant
M395 R = test: Cell survival assay (72 h); format: cell-based, human
Source text: (§3) Cell culture, infections and drug treatments. Cells were maintained in DMEM with 10 or 20% fetal bovine serum and glutamine. shRNAs for B-RAF and C-RAF were sub-cloned into the lentiviral vector pLL3.7; pBabe B-RAF (V600E) was purchase (plasmid 17544, Addgene); viral supernatants generated by co-transfection with three packaging plasm ids into HEK293T cells; and infections carried out with protamine sulfate. Stocks and dilutions of PLX4032 (Plexxikon, Berkeley, Calif.) and AZD6244 (commercially available) were made in DMSO. Cells were quantified using CellTiter-GLO Luminescence (Promega) or crystal violet staining followed by NIH Image J quantification.

pERK levels in M395 R = test: Western blot of pERK after acute vemurafenib titration; format: cell-based, human; settings: vemurafenib titration 1 h after a 24 h drug withdrawal
[3] = system: M395 P over-expressing V600EB-RAF; test: Cell survival assay (72 h) with V600EB-RAF over-expression; format: cell-based, human
Description: FIGS. 9A-9C. ^V600EB-RAF levels modulate melanoma sensitivity to vemurafenib. […] Dashed line, 50% inhibition. […] FIG. 9C, Increasing (in M395 P) or decreasing (in M395 R) BRAF^V600E levels decreased or increased pERK sensitivity to PLX4032 (0, 0.1, 1, 10 μM) treatments for 1 h, respectively.
as §3

[4] = system: M229, M238 and M249 parental cell lines; settings: B-RAF(V600E)-positive parental cell lines, in vitro and in vivo; cited from earlier work
[5] = system: ERK signaling (pMEK, pERK); test: Western blot of ERK signaling (pMEK, pERK) in SKMEL-239 parental cells and resistant clones
Description: PLX4032 IC50 curves (at 5 days) for the SKMEL-239 parental cell line and five PLX4032-resistant clones. […] Western blot for components of the ERK and AKT signaling pathways in parental and resistant clones (2 μM PLX4032/24 hours). […] Dose-response of pMEK and pERK downregulation at 1 hour to increasing concentrations of PLX4032 in parental and two representative resistant clones (C3 and C5). […] Graphic representation of the chemiluminescent signal intensities from 5D and determination of IC50s for inhibition of MEK phosphorylation by PLX4032 in the parental and C3 and C5 clones.
Western blotting and receptor tyrosine kinase (RTK) arrays. […] The following antibodies were used: p217/p221-MEK (pMEK), p202/p204-ERK (pERK), MEK, ERK, (Cell Signaling), V5 tag (Invitrogen), BRAF, cyclin Flag tag, β-actin (Sigma). […] Membranes were exposed to chemiluminescent reagents and images captured using the ImageQuant LAS 4000 instrument (GE HealthCare).

p61 BRAF(V600E), sequence (P15056 with tags, fused parts or gaps DEL169-380/V600E): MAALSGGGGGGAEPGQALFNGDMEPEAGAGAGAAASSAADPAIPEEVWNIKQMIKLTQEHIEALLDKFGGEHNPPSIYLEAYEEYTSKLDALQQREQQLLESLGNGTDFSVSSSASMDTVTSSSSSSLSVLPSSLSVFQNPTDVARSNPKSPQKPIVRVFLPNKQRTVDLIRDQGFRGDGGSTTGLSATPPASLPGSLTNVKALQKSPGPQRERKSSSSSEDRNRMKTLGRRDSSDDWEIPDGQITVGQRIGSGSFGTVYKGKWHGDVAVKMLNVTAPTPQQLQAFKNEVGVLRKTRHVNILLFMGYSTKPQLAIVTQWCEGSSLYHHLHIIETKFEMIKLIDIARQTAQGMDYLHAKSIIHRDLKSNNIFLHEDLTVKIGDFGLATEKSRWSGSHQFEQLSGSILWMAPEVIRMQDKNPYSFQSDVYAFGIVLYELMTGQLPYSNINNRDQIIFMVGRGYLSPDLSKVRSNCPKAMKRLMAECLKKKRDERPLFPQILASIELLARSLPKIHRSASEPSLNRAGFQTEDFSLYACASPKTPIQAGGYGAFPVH
B-RAF(V600E) kinase, sequence (P15056 whole entry V600E): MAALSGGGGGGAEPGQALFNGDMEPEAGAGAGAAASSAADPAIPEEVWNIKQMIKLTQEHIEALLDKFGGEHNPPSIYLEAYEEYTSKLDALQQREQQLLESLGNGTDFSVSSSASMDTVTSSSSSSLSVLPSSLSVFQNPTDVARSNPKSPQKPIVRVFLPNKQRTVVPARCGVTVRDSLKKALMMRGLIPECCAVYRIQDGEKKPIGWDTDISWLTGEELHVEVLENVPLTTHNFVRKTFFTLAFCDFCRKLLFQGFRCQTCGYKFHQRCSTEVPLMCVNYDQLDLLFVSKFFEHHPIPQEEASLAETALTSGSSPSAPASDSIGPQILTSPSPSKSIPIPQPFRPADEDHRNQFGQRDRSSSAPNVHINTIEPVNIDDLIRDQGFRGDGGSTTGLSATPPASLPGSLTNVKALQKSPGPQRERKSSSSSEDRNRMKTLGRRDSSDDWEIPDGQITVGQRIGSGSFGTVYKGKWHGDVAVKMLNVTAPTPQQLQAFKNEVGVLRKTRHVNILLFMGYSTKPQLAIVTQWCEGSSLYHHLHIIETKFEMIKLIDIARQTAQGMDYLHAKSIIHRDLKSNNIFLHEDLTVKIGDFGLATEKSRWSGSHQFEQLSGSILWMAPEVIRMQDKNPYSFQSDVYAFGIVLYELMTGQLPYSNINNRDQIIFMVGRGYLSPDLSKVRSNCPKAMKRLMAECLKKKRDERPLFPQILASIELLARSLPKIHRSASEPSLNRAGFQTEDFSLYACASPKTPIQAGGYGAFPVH

CCCS(=O)(=O)Nc1ccc(F)c(C(=O)c2c[nH]c3ncc(-c4ccc(Cl)cc4)cc23)c1F [PLX4032]
growth resistance to B-RAF inhibitor [1]: resistance
growth resistance to B-RAF inhibitor [2]: resistance
sensitivity of immunoprecipitated B-RAF kinase activities (B-RAF(V600E) kinase): similarly sensitive
Best overall response (melanoma): 83% and 14% and 37% and 53% (2×) and 73% and 84% and 32% and 42% and 24% and 57% and 75%
Progression free survival (melanoma): 161 days and 113 days (2×) and 270 days and 106 days and 141 days and 149 days and 137 days and 126 days (2×) and 466 days and 84 days
sensitivity of ERK signaling (pMEK, pERK) (p61 BRAF(V600E); 293H cells, 2 μM PLX4032 for 1 hour): resistant; also recorded: insensitive
inhibition of ERK signaling (p61 BRAF(V600E); HT-29 (BRAF(V600E)) colorectal carcinoma cells expressing p61 BRAF(V600E)): failure of PLX4032 to effectively inhibit ERK signaling
inhibition of ERK signaling (p61 BRAF(V600E); parental SKMEL-239 cells expressing p61 BRAF(V600E)): failure of PLX4032 to effectively inhibit ERK signaling
Best Response (melanoma tumors): −72% (2×) and −20% and −70% (2×) and −22% and −53% (2×) and −31% (2×) and −60% and −47% and −43% and −25% and −74% and −24% and −37% and −100% and −42% and +8%
PFS (melanoma tumors): 464 days and 304 days and 104 days and 161 days and 137 days and 238 days and 212 days and 373 days and 148 days and 299 days and 107 days and 149 days and 126 days and 279 days and 118 days and 241 days and 168 days (2×) and 79 days and 50 days and 106 days
growth sensitivity to vemurafenib treatment (M395 R; M395 R (amplified V600EB-RAF)): highly resistant
drug sensitivity at high vemurafenib dosing (M395 R; vemurafenib from 1 to 50 µM, 72 h, versus M249 R4): highly sensitive
pERK levels, sensitivity to acute V600EB-RAF inhibition (pERK levels in M395 R): highly resistant
vemurafenib resistance conferred by V600EB-RAF over-expression [3]: highly saturable by micromolar concentrations
sensitivity to PLX4032-mediated growth inhibition [4]: exquisitely sensitive
sensitivity of ERK signaling to the drug ([5]; PLX4032-resistant SKMEL-239 clones): decreased sensitivity
IC50 for pMEK inhibition relative to the parental cell line ([5]; SKMEL-239 C3 clone, 1 hour): more than 100 fold
pMEK IC50 relative to the parental cell line ([5]; SKMEL-239 C5 clone, 1 hour): 4.5 fold
inhibition of ERK signaling ([5]; SKMEL-239 parental, 2 μM PLX4032): effectively inhibits
